In assay [1] the test system is Escherichia coli. Put plainly: Antimicrobial activity against Escherichia coli ATCC 25922 after 17 to 20 hrs by serial dilution method. The assay is classed as functional.
The subject of assay [2] is Priestia megaterium. Briefly: Binding affinity to Bacillus megaterium pHis1525 DNA at 25 to 50 ug/ml after 30 mins by agarose gel electrophoresis.
The subject of assay [3] is Candida albicans. Put plainly: Antimicrobial activity against Candida albicans ATCC 14053 after 17 to 20 hrs by serial dilution method. The assay is classed as functional.
The test system of assay [4] is Staphylococcus aureus. Put plainly: Antimicrobial activity against Staphylococcus aureus ATCC 12600 after 17 to 20 hrs by serial dilution method. The assay is classed as functional.

Converted amounts (≈) assume the structure as drawn. The source made the active and inactive calls. Where a SMILES comes first, the peptide text is derived from it. The star is where a group is joined. Stearoyl = CCCCCCCCCCCCCCCCCC(=O)*; Myristoyl = CCCCCCCCCCCCCC(=O)*; Decanoyl = CCCCCCCCCC(=O)*

The MIC is the smallest concentration in the dilution series that meets the test's criterion for growth inhibition.

As for `CCCCCCCCCC(=O)N[C@@H](CCCCN)C(=O)N[C@@H](Cc1c[nH]c2ccccc12)C(=O)N[C@@H](CCCCN)C(=O)N[C@@H](Cc1c[nH]c2ccccc12)C(N)=O` (Decanoyl-KWKW-NH2), the MIC in assay [1] was found to be 7.8 µg/mL (≈ 9.75 µM); in assay [3], 31.2 µg/mL (≈ 39 µM); in assay [4], 7.8 µg/mL (≈ 9.75 µM). For the same compound, the outcome in assay [2] was Active.

For the compound `CCCCCCCCCC(=O)N[C@@H](CCCNC(=N)N)C(=O)N[C@H](C(=O)N[C@@H](CCCCN)C(=O)N[C@@H](Cc1c[nH]c2ccccc12)C(=O)N[C@@H](Cc1c[nH]c2ccccc12)C(=O)N[C@@H](CCCCN)C(N)=O)[C@@H](C)CC` (Decanoyl-RIKWWK-NH2), the results for the MIC in assay [1], in assay [3] and in assay [4] were 7.8 µg/mL (≈ 7.29 µM), > 62.5 µg/mL and 3.9 µg/mL (≈ 3.65 µM), respectively. In addition, the outcome in assay [2] was Active.

Take `CCCCCCCCCCCCCC(=O)N[C@@H](CCCNC(=N)N)C(=O)N[C@@H](Cc1c[nH]c2ccccc12)C(=O)N[C@@H](Cc1c[nH]c2ccccc12)C(=O)N[C@@H](CCCNC(=N)N)C(N)=O` (Myristoyl-RWWR-NH2): the results for the MIC in assay [1], in assay [3] and in assay [4] were 15.6 µg/mL (≈ 17.1 µM), > 62.5 µg/mL and 7.8 µg/mL (≈ 8.55 µM), respectively.

For `CCCCCCCCCCCCCCCCCC(=O)N[C@@H](CCCNC(=N)N)C(=O)N[C@@H](Cc1c[nH]c2ccccc12)C(=O)N[C@@H](CCCNC(=N)N)C(N)=O` (Stearoyl-Arg-Trp-Arg-NH2), the results for the MIC in assay [1], in assay [3] and in assay [4] were > 31.2 µg/mL, > 62.5 µg/mL and > 31.2 µg/mL, respectively.

On to `CCCCCCCCCCCCCCCCCC(=O)N[C@@H](CCCCN)C(=O)N[C@H](C(=O)N[C@@H](CCCCN)C(=O)N[C@@H](CCCNC(=N)N)C(=O)N[C@@H](Cc1c[nH]c2ccccc12)C(=O)N[C@@H](CCCNC(=N)N)C(N)=O)[C@@H](C)CC` (Stearoyl-KIKRWR-NH2), for which the MIC in assay [1] was > 31.2 µg/mL; in assay [3] it was > 62.5 µg/mL; in assay [4], > 31.2 µg/mL.

`CCCCCCCCCCCCCCCCCC(=O)N[C@@H](CCCCN)C(=O)N[C@H](C(=O)N[C@@H](CCCCN)C(=O)N[C@@H](CCCNC(=N)N)C(=O)N[C@@H](Cc1c[nH]c2ccccc12)C(=O)N[C@@H](Cc1c[nH]c2ccccc12)C(=O)N[C@@H](CCCNC(=N)N)C(N)=O)[C@@H](C)CC` (Stearoyl-KIKRWWR-NH2): the MIC in assay [1] is > 31.2 µg/mL; in assay [3], > 62.5 µg/mL; in assay [4], > 31.2 µg/mL.

In the case of `CCCCCCCCCCCCCCCCCC(=O)N[C@@H](CCCCN)C(=O)N[C@H](C(=O)N[C@@H](CCCNC(=N)N)C(=O)N[C@@H](Cc1c[nH]c2ccccc12)C(=O)N[C@@H](Cc1c[nH]c2ccccc12)C(=O)N[C@@H](CCCNC(=N)N)C(N)=O)[C@@H](C)CC` (Stearoyl-KIRWWR-NH2), the results for the MIC in assay [1], in assay [3] and in assay [4] were > 31.2 µg/mL, > 62.5 µg/mL and > 31.2 µg/mL, respectively.

In the case of `CCCCCCCCCCCCCCCCCC(=O)N[C@@H](CCCCN)C(=O)N[C@H](C(=O)N[C@@H](Cc1c[nH]c2ccccc12)C(=O)N[C@@H](Cc1c[nH]c2ccccc12)C(=O)N[C@@H](CCCCN)C(N)=O)[C@@H](C)CC` (Stearoyl-KIWWK-NH2), the MIC is > 31.2 µg/mL in assay [1], > 62.5 µg/mL in assay [3] and > 31.2 µg/mL in assay [4].

Consider `CCCCCCCCCCCCCCCCCC(=O)N[C@@H](CCCCN)C(=O)N[C@@H](CCCCN)C(=O)N[C@H](C(=O)N[C@@H](CCCNC(=N)N)C(=O)N[C@@H](Cc1c[nH]c2ccccc12)C(=O)N[C@@H](CCCNC(=N)N)C(N)=O)[C@@H](C)CC` (Stearoyl-KKIRWR-NH2), for which the minimum inhibitory concentration (MIC) in assay [1] is > 31.2 µg/mL; in assay [3], > 62.5 µg/mL; in assay [4], 15.6 µg/mL (≈ 13.5 µM).

Regarding `CCCCCCCCCCCCCCCCCC(=O)N[C@@H](CCCCN)C(=O)N[C@@H](CCCCN)C(=O)N[C@@H](Cc1c[nH]c2ccccc12)C(=O)N[C@@H](CCCCN)C(N)=O` (Stearoyl-KKWK-NH2), the MIC in assay [1], in assay [3] and in assay [4] was 31.2 µg/mL (≈ 36.5 µM) in each case.

As for `CCCCCCCCCCCCCCCCCC(=O)N[C@@H](CCCCN)C(=O)N[C@@H](CCCCN)C(=O)N[C@@H](Cc1c[nH]c2ccccc12)C(=O)N[C@@H](Cc1c[nH]c2ccccc12)C(N)=O` (Stearoyl-KKWW-NH2), the values for the MIC in assay [1], in assay [3] and in assay [4] were > 31.2 µg/mL, > 62.5 µg/mL and > 31.2 µg/mL, respectively.

Consider `CCCCCCCCCCCCCCCCCC(=O)N[C@@H](CCCCN)C(=O)N[C@@H](CCCNC(=N)N)C(=O)N[C@H](C(=O)N[C@@H](Cc1c[nH]c2ccccc12)C(=O)N[C@@H](Cc1c[nH]c2ccccc12)C(=O)N[C@@H](CCCNC(=N)N)C(N)=O)[C@@H](C)CC` (Stearoyl-KRIWWR-NH2), for which the MIC was > 31.2 µg/mL in assay [1], > 62.5 µg/mL in assay [3] and 15.6 µg/mL (≈ 12.9 µM) in assay [4].

With `CCCCCCCCCCCCCCCCCC(=O)N[C@@H](CCCCN)C(=O)N[C@@H](Cc1c[nH]c2ccccc12)C(=O)N[C@@H](CCCCN)C(=O)N[C@@H](Cc1c[nH]c2ccccc12)C(N)=O` (Stearoyl-KWKW-NH2), the values for the MIC in assay [1], in assay [3] and in assay [4] were > 31.2 µg/mL, > 62.5 µg/mL and > 31.2 µg/mL, respectively.

For `CCCCCCCCCCCCCCCCCC(=O)N[C@@H](CCCCN)C(=O)N[C@@H](Cc1c[nH]c2ccccc12)C(=O)N[C@@H](Cc1c[nH]c2ccccc12)C(=O)N[C@@H](CCCCN)C(N)=O` (Stearoyl-KWWK-NH2), the MIC in assay [1] is > 31.2 µg/mL; in assay [3] it was > 62.5 µg/mL; in assay [4], > 31.2 µg/mL.

Take `CCCCCCCCCCCCCCCCCC(=O)N[C@@H](CCCCN)C(=O)N[C@@H](Cc1c[nH]c2ccccc12)C(=O)N[C@@H](CCCCN)C(N)=O` (Stearoyl-Lys-Trp-Lys-NH2): the MIC was > 31.2 µg/mL in assay [1], > 62.5 µg/mL in assay [3] and 31.2 µg/mL (≈ 43 µM) in assay [4].

As to `CCCCCCCCCCCCCCCCCC(=O)N[C@@H](CCCNC(=N)N)C(=O)N[C@H](C(=O)N[C@@H](CCCCN)C(=O)N[C@@H](Cc1c[nH]c2ccccc12)C(=O)N[C@@H](CCCCN)C(N)=O)[C@@H](C)CC` (Stearoyl-RIKWK-NH2), the MIC in assay [1] was > 31.2 µg/mL; in assay [3] it was > 62.5 µg/mL; in assay [4] it was > 31.2 µg/mL.

Consider `CCCCCCCCCCCCCCCCCC(=O)N[C@@H](CCCNC(=N)N)C(=O)N[C@H](C(=O)N[C@@H](CCCCN)C(=O)N[C@@H](Cc1c[nH]c2ccccc12)C(=O)N[C@@H](Cc1c[nH]c2ccccc12)C(=O)N[C@@H](CCCCN)C(N)=O)[C@@H](C)CC` (Stearoyl-RIKWWK-NH2), for which the MIC in assay [1] is > 31.2 µg/mL; in assay [3], > 62.5 µg/mL; in assay [4], 31.2 µg/mL (≈ 26.4 µM).

As to `CCCCCCCCCCCCCCCCCC(=O)N[C@@H](CCCNC(=N)N)C(=O)N[C@@H](CCCCN)C(=O)N[C@@H](Cc1c[nH]c2ccccc12)C(=O)N[C@@H](Cc1c[nH]c2ccccc12)C(=O)N[C@@H](CCCCN)C(N)=O` (Stearoyl-RKWWK-NH2), the MIC in assay [1] was 125 µg/mL (≈ 117 µM); in assay [3], > 62.5 µg/mL; in assay [4], 31.2 µg/mL (≈ 29.2 µM).

For `CCCCCCCCCCCCCCCCCC(=O)N[C@@H](CCCNC(=N)N)C(=O)N[C@@H](Cc1c[nH]c2ccccc12)C(=O)N[C@@H](CCCNC(=N)N)C(=O)N[C@@H](Cc1c[nH]c2ccccc12)C(N)=O` (Stearoyl-RWRW-NH2), the MIC in assay [1] was > 31.2 µg/mL; in assay [3], > 62.5 µg/mL; in assay [4], > 31.2 µg/mL.

As to `CCCCCCCCCCCCCCCCCC(=O)N[C@@H](CCCNC(=N)N)C(=O)N[C@@H](Cc1c[nH]c2ccccc12)C(=O)N[C@@H](Cc1c[nH]c2ccccc12)C(=O)N[C@@H](CCCNC(=N)N)C(N)=O` (Stearoyl-RWWR-NH2), the MIC is > 31.2 µg/mL in assay [1], > 62.5 µg/mL in assay [3] and 31.2 µg/mL (≈ 32.2 µM) in assay [4].

The values are drawn from ChEMBL document CHEMBL3286360, “Tuning the antimicrobial pharmacophore to enable discovery of short lipopeptides with multiple modes of action” (Eur J Med Chem, 2014).
